Data as given in patent US10273236B2, “Macrocyclic factor XIa inhibitors bearing heterocyclic groups” (Bristol-Myers Squibb Company, priority 2014, dated 2019).
Counter-ions that a name gives are not always drawn.

Legend:
[1] = target: T1, purified human Factor XIa (Homo sapiens, UniProt P03951); experiment: Factor XIa inhibition assay, chromogenic substrate S-2366 (Ki); type: biochemical
T1 construct: purchased Haematologic Technologies
In short: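 Purified human FXIa (25-200 pM final) with S-2366 (0.0002-0.001 M) in 50 mM HEPES pH 7.4, 145 mM NaCl, 5 mM KCl, 0.1% PEG 8000. Velocities of absorbance change measured over 20-180 min with inhibitor present; Ki calculated for competitive inhibition from rates or IC50 via Ki=IC50/(1+S/Km).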

[2] = target: T2, purified human plasma kallikrein (Homo sapiens, UniProt P03952); experiment: Plasma kallikrein inhibition assay, chromogenic substrate S-2302 (Ki); type: biochemical
T2 construct: Plasma prekallikrein is a zymogen of a trypsin-like serine protease; purchased Enzyme Research Laboratories
In short: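 Purified human plasma kallikrein (200 pM final) with chromogenic substrate S-2302 at 0.00008-0.0004 M in 0.1 M sodium phosphate pH 7.5, 0.1-0.2 M NaCl, 0.5% PEG 8000. Velocities measured over 20-180 min with and without inhibitor; Ki derived assuming competitive inhibition, e.g. Ki=IC50/(1+S/Km).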

T1 sequence (P03951 388-625 limits assumed): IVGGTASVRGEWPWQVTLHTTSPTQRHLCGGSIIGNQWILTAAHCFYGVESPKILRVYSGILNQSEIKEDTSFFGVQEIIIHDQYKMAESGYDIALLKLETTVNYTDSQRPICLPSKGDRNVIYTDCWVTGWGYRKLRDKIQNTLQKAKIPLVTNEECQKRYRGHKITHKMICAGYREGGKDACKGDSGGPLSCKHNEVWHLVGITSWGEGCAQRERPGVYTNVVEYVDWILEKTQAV
T1 sequence (P03951 19-387 partner limits assumed): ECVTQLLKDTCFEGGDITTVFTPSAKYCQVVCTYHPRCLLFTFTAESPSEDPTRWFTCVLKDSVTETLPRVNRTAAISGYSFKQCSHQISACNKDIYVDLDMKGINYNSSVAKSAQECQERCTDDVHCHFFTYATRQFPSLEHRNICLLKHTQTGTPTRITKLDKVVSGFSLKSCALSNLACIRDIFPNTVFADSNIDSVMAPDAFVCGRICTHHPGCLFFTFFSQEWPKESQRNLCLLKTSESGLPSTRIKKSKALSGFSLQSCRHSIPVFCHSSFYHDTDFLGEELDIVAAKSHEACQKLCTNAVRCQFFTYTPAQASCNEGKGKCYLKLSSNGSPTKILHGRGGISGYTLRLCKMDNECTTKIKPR
T2 sequence (P03952 391-638 limits assumed): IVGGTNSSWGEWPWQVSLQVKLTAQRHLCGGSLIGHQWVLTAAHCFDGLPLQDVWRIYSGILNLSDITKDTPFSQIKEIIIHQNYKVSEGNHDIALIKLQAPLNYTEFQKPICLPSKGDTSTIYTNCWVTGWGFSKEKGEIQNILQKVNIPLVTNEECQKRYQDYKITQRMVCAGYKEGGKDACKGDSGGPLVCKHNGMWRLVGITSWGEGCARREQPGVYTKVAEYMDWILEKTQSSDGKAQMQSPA
T2 sequence (P03952 20-390 partner limits assumed): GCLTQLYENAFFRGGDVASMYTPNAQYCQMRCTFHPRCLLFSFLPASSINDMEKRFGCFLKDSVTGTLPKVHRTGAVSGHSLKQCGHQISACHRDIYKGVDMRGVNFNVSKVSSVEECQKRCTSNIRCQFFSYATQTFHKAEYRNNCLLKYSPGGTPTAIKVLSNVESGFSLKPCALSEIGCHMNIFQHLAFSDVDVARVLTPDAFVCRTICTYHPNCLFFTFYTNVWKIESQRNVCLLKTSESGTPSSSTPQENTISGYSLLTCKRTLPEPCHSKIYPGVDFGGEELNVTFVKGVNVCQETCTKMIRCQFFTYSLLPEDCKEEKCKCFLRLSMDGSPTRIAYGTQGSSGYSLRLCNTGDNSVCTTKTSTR

Compound	Ki [1]	Ki [2]
CCn1ncc2c1-c1ccnc(c1)[C@@H](N1CCC(c3c(F)ccc(Cl)c3F)=CC1=O)CCC[C@@H](C)C(=O)N2 [Example 45, (9R,13S)-13-[4-(3-chloro-2,6-difluorophenyl)-6-oxo-1,2,3,6-tetrahydropyridin-1-yl]-3-ethyl-9-methyl-3,4,7,15-tetraazatricyclo[12.3.1.0^2,6]octadeca-1(18),2(6),4,14,16-pentaen-8-one]	13 nM	54 nM
CC(=O)c1ccc(Cl)c(F)c1C1=CC(=O)N([C@H]2CCC[C@@H](C)C(=O)Nc3cnn(C)c3-c3ccnc2c3)CC1 [Example 46, (9R,13S)-13-[4-(6-acetyl-3-chloro-2-fluorophenyl)-6-oxo-1,2,3,6-tetrahydropyridin-1-yl]-3,9-dimethyl-3,4,7,15-tetraazatricyclo[12.3.1.0^2,6]octadeca-1(18),2(6),4,14,16-pentaen-8-one]	3.5 nM	46 nM
C[C@@H]1CCC[C@H](N2CCC(c3c(C(F)(F)F)ccc(Cl)c3F)=CC2=O)c2cc(ccn2)-c2nn(-c3cncnc3)cc2NC1=O [Example 47, (9R,13S)-13-{4-[3-chloro-2-fluoro-6-(trifluoromethyl)phenyl]-6-oxo-1,2,3,6-tetrahydropyridin-1-yl}-9-methyl-4-(pyrimidin-5-yl)-3,4,7,15-tetraazatricyclo[12.3.1.0^2,6]octadeca-1(18),2,5,14,16-pentaen-8-one]	5.4 nM	13 nM
C[C@H]1C(=O)Nc2cnn(C)c2-c2cc(F)cc(c2)[C@@H](N2CCC(c3cc(Cl)ccc3-n3cc(Cl)nn3)=CC2=O)CCC1F (stereo partly drawn) [Example 50, (9S,13S)-13-{4-[5-chloro-2-(4-chloro-1H-1,2,3-triazol-1-yl)phenyl]-6-oxo-1,2,3,6-tetrahydropyridin-1-yl}-10,16-difluoro-3,9-dimethyl-3,4,7-triazatricyclo[12.3.1.0^2,6]octadeca-1(18),2(6),4,14,16-pentaen-8-one]	0.1 nM	8 nM
[2H]C([2H])([2H])n1ncc2c1-c1cccc(c1)[C@@H](N1CCC(c3cc(Cl)ccc3-n3cc(Cl)nn3)=CC1=O)CCC[C@@H](C)C(=O)N2 [Example 51, (9R,13S)-13-{4-[5-chloro-2-(4-chloro-1H-1,2,3-triazol-1-yl)phenyl]-6-oxo-1,2,3,6-tetrahydropyridin-1-yl}-3-(^2H3)methyl-9-methyl-3,4,7-triazatricyclo[12.3.1.0^2,6]octadeca-1(18),2(6),4,14,16-pentaen-8-one]	0.18 nM	5 nM
C[C@@H]1CCC[C@H](N2CCC(c3cc(Cl)ccc3-n3cc(Cl)nn3)=CC2=O)c2cc(ccn2)-c2c(cnn2CC(F)F)NC1=O [Example 52, (9R,13S)-13-{4-[5-chloro-2-(4-chloro-1H-1,2,3-triazol-1-yl)phenyl]-6-oxo-1,2,3,6-tetrahydropyridin-1-yl}-3-(2,2-difluoroethyl)-9-methyl-3,4,7,15-tetraazatricyclo[12.3.1.0^2,6]octadeca-1(18),2(6),4,14,16-pentaen-8-one]	0.76 nM	22 nM
C[C@@H]1CCC[C@H](N2CCC(c3cc(Cl)ccc3-n3ccnn3)=CC2=O)c2cc(ccn2)-c2c(cnn2C(F)F)NC1=O [Example 53, (9R)-13-{4-[5-chloro-2-(1H-1,2,3-triazol-1-yl)phenyl]-6-oxo-1,2,3,6-tetrahydropyridin-1-yl}-3-(difluoromethyl)-9-methyl-3,4,7,15-tetraazatricyclo[12.3.1.0^2,6]octadeca-1(18),2(6),4,14,16-pentaen-8-one]	0.87 nM	37 nM
C[C@@H]1CCC[C@H](N2CCC(c3cc(Cl)ccc3-n3cc(Cl)nn3)=CC2=O)c2cc(ccn2)-c2c(cnn2C2CC2(F)F)NC1=O (stereo partly drawn) [Example 56, (9R,13S)-13-{4-[5-chloro-2-(4-chloro-1H-1,2,3-triazol-1-yl)phenyl]-6-oxo-1,2,3,6-tetrahydropyridin-1-yl}-3-(2,2-difluorocyclopropyl)-9-methyl-3,4,7,15-tetraazatricyclo[12.3.1.0^2,6]octadeca-1(18),2(6),4,14,16-pentaen-8-one]	0.36 nM	30 nM
C[C@@H]1CCC[C@H](N2CCC(c3cc(Cl)ccc3C#N)=CC2=O)c2cc(ccn2)-c2c(cnn2C)NC1=O [Example 57, 4-chloro-2-{1-[(9R,13S)-3,9-dimethyl-8-oxo-3,4,7,15-tetraazatricyclo[12.3.1.0^2,6]octadeca-1(18),2(6),4,14,16-pentaen-13-yl]-6-oxo-1,2,3,6-tetrahydropyridin-4-yl}benzonitrile]	4 nM	14 nM
C[C@@H]1CCC[C@H](N2CCC(c3c(C(F)(F)F)ccc(Cl)c3F)=CC2=O)c2cc(ccn2)-c2c(cnn2C2CC2)NC1=O [Example 60, (9R,13S)-13-{4-[3-chloro-2-fluoro-6-(trifluoromethyl)phenyl]-6-oxo-1,2,3,6-tetrahydropyridin-1-yl}-3-cyclopropyl-9-methyl-3,4,7,15-tetraazatricyclo[12.3.1.0^2,6]octadeca-1(18),2(6),4,14,16-pentaen-8-one]	7.2 nM	22 nM
[2H]C([2H])([2H])n1ncc2c1-c1ccnc(c1)[C@@H](n1ccc(-c3cc(Cl)ccc3-n3cc(C(F)(F)F)nn3)cc1=O)CCC[C@@H](C)C(=O)N2 [Example 62, (9R,13S)-13-(4-{5-Chloro-2-[4-(trifluoromethyl)-1H-1,2,3-triazol-1-yl]phenyl}-2-oxo-1,2-dihydropyridin-1-yl)-3-(^2H3)methyl-9-methyl-3,4,7,15-tetraazatricyclo[12.3.1.0^2,6]octadeca-1(18),2(6),4,14,16-pentaen-8-one, trifluoroacetate]	0.1 nM	6 nM
[2H]C([2H])([2H])n1ncc2c1-c1ccnc(c1)[C@@H](n1ncc(-c3cc(Cl)ccc3-n3cc(C(F)(F)F)nn3)cc1=O)CCC[C@@H](C)C(=O)N2 [Example 63, (9R,13S)-13-(4-{5-Chloro-2-[4-(trifluoromethyl)-1H-1,2,3-triazol-1-yl]phenyl}-6-oxo-1,6-dihydropyridazin-1-yl)-3-(^2H3)methyl-9-methyl-3,4,7,15-tetraazatricyclo[12.3.1.0^2,6]octadeca-1(18),2(6),4,14,16-pentaen-8-one trifluoroacetate]	0.52 nM	77 nM

Continued by falling Ki [1], values first:

Ki [1]	Ki [2]	Compound
7.1 nM	150 nM	C[C@@H]1CCC[C@H](N2CCC(c3cc(Cl)ccc3-n3ccnn3)=CC2=O)c2cc(ccn2)-c2c(cnn2C2CCC2)NC1=O [Example 54, (9R,13S)-13-{4-[5-chloro-2-(1H-1,2,3-triazol-1-yl)phenyl]-6-oxo-1,2,3,6-tetrahydropyridin-1-yl}-3-cyclobutyl-9-methyl-3,4,7,15-tetraazatricyclo[12.3.1.0^2,6]octadeca-1(18),2(6),4,14,16-pentaen-8-one]
3.2 nM	69 nM	C[C@@H]1CCC[C@H](N2CCC(c3c(C(F)(F)F)ccc(Cl)c3F)=CC2=O)c2cccc(c2)-c2c(cnn2C)NC1=O [Example 49, (9R,13S)-13-{4-[3-chloro-2-fluoro-6-(trifluoromethyl)phenyl]-6-oxo-1,2,3,6-tetrahydropyridin-1-yl}-3,9-dimethyl-3,4,7-triazatricyclo[12.3.1.0^2,6]octadeca-1(18),2(6),4,14,16-pentaen-8-one]
2.4 nM	46 nM	C[C@@H]1CCC[C@H](N2CCC(c3cc(Cl)ccc3-n3cc(Cl)nn3)=CC2=O)c2cc(ccn2)-c2[nH]ncc2NC1=O [Example 58, (9R,13S)-13-{4-[5-chloro-2-(4-chloro-1H-1,2,3-triazol-1-yl)phenyl]-6-oxo-1,2,3,6-tetrahydropyridin-1-yl}-9-methyl-3,4,7,15-tetraazatricyclo[12.3.1.0^2,6]octadeca-1(18),2(6),4,14,16-pentaen-8-one]
0.51 nM	66 nM	C[C@@H]1CCC[C@H](n2ncc(-c3cc(Cl)ccc3-n3cc(C(F)(F)F)nn3)cc2=O)c2cc(ccn2)-c2c(cnn2C)NC1=O [Example 61, (9R,13S)-13-(4-{5-chloro-2-[4-(trifluoromethyl)-1H-1,2,3-triazol-1-yl]phenyl}-6-oxo-1,6-dihydropyridazin-1-yl)-3,9-dimethyl-3,4,7,15-tetraazatricyclo[12.3.1.02,6]octadeca-1(18),2(6),4,14,16-pentaen-8-one trifluoroacetate]
0.13 nM	5.5 nM	C[C@@H]1CCC[C@H](N2CCC(c3cc(Cl)ccc3-n3cc(Cl)nn3)=CC2=O)c2cccc(c2)-c2c(cnn2C)NC1=O [Example 48, (9R,13S)-13-{4-[5-chloro-2-(4-chloro-1H-1,2,3-triazol-1-yl)phenyl]-6-oxo-1,2,3,6-tetrahydropyridin-1-yl}-3,9-dimethyl-3,4,7-triazatricyclo[12.3.1.0^2,6]octadeca-1(18),2(6),4,14,16-pentaen-8-one]
0.1 nM	6 nM	C[C@@H]1CCC[C@H](N2CCC(c3cc(Cl)ccc3-n3cc(Cl)nn3)=CC2=O)c2cc(ccn2)-c2c(cnn2C(F)F)NC1=O [Example 55, (9R,13S)-13-{4-[5-chloro-2-(4-chloro-1H-1,2,3-triazol-1-yl)phenyl]-6-oxo-1,2,3,6-tetrahydropyridin-1-yl}-3-(difluoromethyl)-9-methyl-3,4,7,15-tetraazatricyclo[12.3.1.0^2,6]octadeca-1(18),2(6),4,14,16-pentaen-8-one]
0.1 nM	4 nM	C[C@@H]1CCC[C@H](N2CCC(c3cc(Cl)ccc3-n3cc(Cl)nn3)=CC2=O)c2cc(F)cc(c2)-c2c(cnn2C)NC1=O [Example 59, (9R,13S)-13-{4-[5-chloro-2-(4-chloro-1H-1,2,3-triazol-1-yl)phenyl]-6-oxo-1,2,3,6-tetrahydropyridin-1-yl}-16-fluoro-3,9-dimethyl-3,4,7-triazatricyclo[12.3.1.0^2,6]octadeca-1(18),2(6),4,14,16-pentaen-8-one]
